For data set [1] the following is noted: cited from earlier work.
The test system of data set [2] is primary cortical neurons. As to the kind of experiment: Western immunoblot of Aβ aggregation during incubation with neurons. As to conditions: Aβ 500 nM, 4 h; NuPAGE and western immunoblot with 82E1; compared to npAβ or p-Ser26Aβ. The class given is cell-based, mouse. The method, then:
Cells were collected by scraping and mechanically homogenized in hypotonic D buffer (10 mM Tris-HCl, pH 7.4, 10 mM NaCl, 0.1 mM EGTA, 25 mM glycerol 2-phosphate, 1 mM DTT) containing protease and phosphatase inhibitors by repeated suspension through a 23 G × 1” needle. Post-nuclear supernatant (PNS) was collected by centrifugation of the mechanically homogenized cellular material at 2,000 g for 5 min. The pellet was the nuclear material. […]
For different cellular fractions prepared as described earlier, the protein content was estimated using the standard Pierce™ BCA protein assay kit (ThermoFisher Scientific, 23225). […] Blots were developed either by enhanced chemiluminescence (ECL) or fluorescence imaging. […] Signals were detected with an ECL imager (Bio-Rad, Germany). For fluorescence detection, blots were imaged on a Li-COR imaging station (Li-COR Biosciences, Germany). […] Quantification of band signals was done using ImageJ – Gel processing module or Image Studio processing software (LiCOR Biosciences, Germany). All samples were analyzed in biological duplicates in two or three independent experiments as indicated in the respective figure legends. […]
Background: Immunoblotting shows a protein as a band on a membrane.

Data set [3] concerns primary cortical neurons. The data set is described as follows: ELISA of Aβ levels in the treatment media. In kind it is cell-based, mouse. The following applies: 4 hours incubation, 500 nM, neurobasal FCS- PS- media, versus amount before incubation, n = 9, N = 3. As to the method:
Primary cortical neurons (DIV14) were treated with 500 nM of monomeric/unaggregated Aβ variants ([…]β and p-[…]β) in neurobasal, FCS^- PS^- media. SH-SY5Y cells seeded on D1, were treated with Aβ variants (1 μM) on D3 in DMEM/F-12 media without serum and antibiotics. Control treatment included treatment with equal volume of 10 mM NaOH solution used for preparing the Aβ stock solutions, in respective cell culture medium. SH-SY5Y cells, after 16 h of transient expression of the reporter constructs, were treated with different Aβ variants, autophagy modulator substrates and respective controls in DMEM/F-12, FCS^- PS^- media for the mentioned time points. […] Cells were either collected by scraping using a cell-scraper or fixed with 4% PFA-PBS for 15 min at RT, for further immunocytochemistry experiments. Collected treatment media was centrifuged at 1000 g for 5 min, pellet discarded and supernatant frozen at -20°C until further usage. Plates (ThermoFisher Scientific, 44-2404-21) were coated with either […]6) or anti-pAβ antibodies ([…]11 and […]) as capture antibody at RT for 2 h and blocked with 1 mg/ml BSA solution in PBS. […] Multiple readings were recorded for a single well and averaged. In each experiment, each sample was analyzed in technical duplicate/triplicate wells as indicated and average values from an independent experiment are presented (Figures 1E, 3G, SA-D and Table S2).
Background: ELISA stands for enzyme-linked immunosorbent assay.

In the case of “amyloid-β phosphorylated at serine residue 26 [p-Ser26Aβ]”, the “Assemblies formed (effect of Ser26 phosphorylation)” value in data set [1] was “soluble oligomeric assemblies, rather than fibrillar assemblies”. For the substance “amyloid-β phosphorylated at serine residue 8 [p-Ser8Aβ]”, the “SDS resistant aggregates formed during the incubation with neurons” value with primary cortical neurons [2] was “forms more SDS resistant aggregates”.

For “non-phosphorylated amyloid-β [npAβ, reference compound]”, the “Levels of Aβ in the treatment media after incubation with primary neurons” value in the data set on primary cortical neurons [3] is on record as “significantly decreased”.

The values above are taken from article PMC10761119, “Phosphorylation-state dependent intraneuronal sorting of Aβ differentially impairs autophagy and the endo-lysosomal system” (Autophagy, 2023).
